{"source": "patent US12215460B2", "about": "“Methods of microbial control” (Clean Chemistry, Inc., priority 2015, dated 2025)", "key": {"[1]": {"assay": "TOX formation tests in pulp bleaching", "experimental": "[…]. The pulp slurry was put into a 1 L glass beaker in a heated water bath. The beakers were fitted with liquid-tight covers to minimize evaporative losses of water and oxidants. After the pulp slurry was heated the oxidant solution and additional salt water was added to make a final composition of about 855 g water, 45.0 g of air-dry pulp, 8.55 g NaCl and the oxidant. The oxidant was mixed into the pulp slurry thoroughly with a stainless steel spatula for several minutes and then mixed periodically throughout the 2 hour bleaching period. The pH of the slurry was left at the natural pH created by each oxidant in the presence of the pulp.\nThe amount of oxidant used in each test was enough to partially bleach the amount of lignin present so that the oxidant was the limiting reagent. When peracetate oxidant was combined with Kraft pulp the evolution of some gas was observed accompanied by rapid bleaching that was clearly visible within the first few minutes. […]. After 2 hours at 50° C. the pulp slurries were vacuum filtered through a Buchner funnel over a medium porosity filter paper. There was no residual oxidant present in the filtrates. The four filtrate solutions recovered were put into amber glass bottles and preserved with sulfuric acid for total organic halide analyses, which were conducted by a third party laboratory."}, "[2]": {"assay": "Bleaching of Kraft pulp, hand sheet tests"}, "[3]": {"conditions": "flowback water, 22 C, pH 6.5; initial 80 mg/L (peracetate as PAA; PAA with 112 mg/L H2O2)"}, "microbes": {"tested_on": "microbes", "assay": "Microbial control in water at slightly alkaline pH, oxidant comparison", "type": "cell-based", "description": "In some embodiments, microbial control in water at slightly alkaline pH was compared between peracetate oxidant, […] bleach, peracetic acid and […] dioxide. Alkaline pH is encountered in a variety of applications where microbial control and sanitization is needed, including pulp and paper processing, cooling towers, water treatment and chill tanks in poultry processing. […]."}, "[4]": {"assay": "Thermal activation in clean water at pH 8.5 and 50 C", "type": "physicochemical", "conditions": "distilled water"}, "ORP of oxidants at pH 7": {"assay": "ORP of oxidants at pH 7", "type": "physicochemical", "conditions": "29 mM"}, "[5]": {"conditions": "Entry 8, 30 min, 4.0 g/L, initial pH 8.0"}, "[6]": {"conditions": "Entry 9, 30 min, 4.0 g/L, initial pH 8.9"}, "[7]": {"conditions": "Entry 2, bleach time 30 min, 1.13 g/L PAA equiv., initial pH 8.2"}}, "note": "Where two headings read alike, the source gives them in different places."}
{"molecule": "sodium peracetate [peracetate oxidant]", "values": [{"measurement": "total organic halides (TOX) relative to chlorine dioxide", "setting": "[1]", "value": "about ten times less"}]}
{"molecule": "CC(=O)OO", "note": "[peracetic acid]", "values": [{"measurement": "Final ORP", "setting": "[2]; Entry 7, 30 min, 4.0 g/L, initial pH 7.0", "value": 502, "unit": "mV vs SHE"}, {"measurement": "Final pH", "setting": "[2]; Entry 7, 30 min, 4.0 g/L, initial pH 7.0, stock 11.4% PAA and 15.6% H2O2", "value": 7.0}, {"measurement": "Final ORP", "setting": "[2]; [5]", "value": 406, "unit": "mV vs SHE"}, {"measurement": "Final pH", "setting": "[2]; [5]", "value": 8.0}, {"measurement": "Final ORP", "setting": "[2]; [6]", "value": 253, "unit": "mV vs SHE"}, {"measurement": "Final pH", "setting": "[2]; [6]", "value": 8.8}, {"measurement": "Normalized TOX", "setting": "[1]; Kraft pulp 5% consistency, 1.0% NaCl, 50 C, 2 hours", "value": "4.5 mg/L per 1000 mg/L oxidant"}, {"measurement": "TOX", "setting": "[1]; Kraft pulp 5% consistency, 1.0% NaCl, 50 C, 2 hours, initial 4000 mg/L peracetate (as PAA equivalents), 4000 PAA + 5400 H2O2, 1000 ClO2, blank 0.68", "value": 17.8, "unit": "mg/L"}, {"measurement": "TOX", "setting": "[3]", "value": "BDL (BDL = below detection limit, less than 0.05 mg/L)"}, {"measurement": "performance as antimicrobial disinfectant", "setting": "microbes", "value": "lowest performance"}, {"measurement": "time peracetic acid and hydrogen peroxide concentrations were stable", "setting": "[4]", "value": "about 90 minutes"}, {"measurement": "ORP", "setting": "[4]; constant during the test", "value": "around 280 mV vs SHE"}]}
{"molecule": "OCl", "note": "[hypochlorous acid]", "values": [{"measurement": "ORP", "setting": "ORP of oxidants at pH 7", "value": "over 1.1 V (vs SHE)"}]}
{"molecule": "OO", "note": "[hydrogen peroxide]", "values": [{"measurement": "ORP", "setting": "ORP of oxidants at pH 7", "value": "about 0.5 V (vs SHE)"}]}
{"molecule": "[O][Cl+][O-]", "note": "[chlorine dioxide]", "values": [{"measurement": "Final ORP", "setting": "[2]; [7]", "value": 896, "unit": "mV vs SHE"}, {"measurement": "Final pH", "setting": "[2]; [7]", "value": 6.4}, {"measurement": "Normalized TOX", "setting": "[1]", "value": "17.7 mg/L per 1000 mg/L oxidant"}, {"measurement": "TOX", "setting": "[1]", "value": 17.7, "unit": "mg/L"}, {"measurement": "performance as antimicrobial disinfectant", "setting": "microbes", "value": "performed well"}]}
